Measurements reported in ChEMBL document CHEMBL3885881, “DrugMatrix”.

Organism: Rattus norvegicus
Assay: DrugMatrix - Regimen: Daily Repeat
Assay type: toxicity, organism-based, Sprague-Dawley
Design: regimen Daily Repeat, gender Male, age 6-8 weeks
Conditions: in vivo, po, route oral GAVAGE, vehicle .5 % CMC; for ALANINE AMINOTRANSFERASE / ALBUMIN / ALKALINE PHOSPHATASE / ASPARTATE AMINOTRANSFERASE / BLOOD UREA NITROGEN / CARBON DIOXIDE / CHLORIDE / CHOLESTEROL / CREATINE PHOSPHOKINASE / CREATININE / GLUCOSE / LACTATE DEHYDROGENASE / LIPASE / PHOSPHORUS / POTASSIUM / SODIUM / TOTAL BILIRUBIN / TOTAL PROTEIN / URIC ACID: tissue Plasma; for ABSOLUTE BASOPHIL / ABSOLUTE EOSINOPHIL / ABSOLUTE LYMPHOCYTE / ABSOLUTE MONOCYTE / ABSOLUTE SEGMENTED NEUTROPHIL / BASOPHIL / EOSINOPHIL / ERYTHROCYTE COUNT / HEMATOCRIT / HEMOGLOBIN / LEUKOCYTE COUNT / LYMPHOCYTE / MEAN CORPUSCULAR HEMOGLOBIN / MEAN CORPUSCULAR HEMOGLOBIN CONCENTRATION / MEAN CORPUSCULAR VOLUME / MONOCYTE / NEUTROPHIL / NUCLEATED RED BLOOD CELLS / PLATELET COUNT: tissue Blood
[1] = 10 mg/kg, 72 h, dose level Low, time 3 day
[2] = 10 mg/kg, 120 h, dose level Low, time 5 day
[3] = 2500 mg/kg, 72 h, dose level High, time 3 day

SMILES: CCOC(=O)[C@H](CCc1ccccc1)N[C@@H](C)C(=O)N1Cc2ccccc2C[C@H]1C(=O)O
- ALANINE AMINOTRANSFERASE [1]: 57.33 u/L
- ALBUMIN [1]: 4.43 G/DL
- ALKALINE PHOSPHATASE [1]: 414 u/L
- ASPARTATE AMINOTRANSFERASE [1]: 111.67 u/L
- BLOOD UREA NITROGEN [1]: 19.33 mg/dL
- CARBON DIOXIDE [1]: 27 mmol/L
- CHLORIDE [1]: 101.33 MEQ/L
- CHOLESTEROL [1]: 71.67 mg/dL
- CREATINE PHOSPHOKINASE [1]: 1227 u/L
- CREATININE [1]: 0.15 mg/dL
- GLUCOSE [1]: 179.67 mg/dL
- LACTATE DEHYDROGENASE [1]: 229.67 u/L
- LIPASE [1]: 10 u/L
- PHOSPHORUS [1]: 12.13 mg/dL
- POTASSIUM [1]: 6.89 MEQ/L
- SODIUM [1]: 142.53 MEQ/L
- TOTAL BILIRUBIN [1]: 0.23 mg/dL
- TOTAL PROTEIN [1]: 6.1 G/DL
- URIC ACID [1]: 1.73 mg/dL
- ABSOLUTE BASOPHIL [2]: 0 CELLS/uL
- ABSOLUTE EOSINOPHIL [2]: 0 CELLS/uL
- ABSOLUTE LYMPHOCYTE [2]: 9146.67 CELLS/uL
- ABSOLUTE MONOCYTE [2]: 149.33 CELLS/uL
- ABSOLUTE SEGMENTED NEUTROPHIL [2]: 970.67 CELLS/uL
- BASOPHIL [2]: 0%
- EOSINOPHIL [2]: 0%
- ERYTHROCYTE COUNT [2]: 5.39 x10E6/uL
- HEMATOCRIT [2]: 34.63%
- HEMOGLOBIN [2]: 13.67 G/DL
- LEUKOCYTE COUNT [2]: 10.27 x10E3/uL
- LYMPHOCYTE [2]: 89.33%
- MEAN CORPUSCULAR HEMOGLOBIN [2]: 25.4 pg
- MEAN CORPUSCULAR HEMOGLOBIN CONCENTRATION [2]: 39.47 G/DL
- MEAN CORPUSCULAR VOLUME [2]: 64.27 fL
- MONOCYTE [2]: 1.33%
- NEUTROPHIL [2]: 9.33%
- NUCLEATED RED BLOOD CELLS [2]: 0 /100WBC
- PLATELET COUNT [2]: 1332.67 x10E3/uL
- ALANINE AMINOTRANSFERASE [2]: 53 u/L
- ALBUMIN [2]: 4.43 G/DL
- ALKALINE PHOSPHATASE [2]: 351.67 u/L
- ASPARTATE AMINOTRANSFERASE [2]: 77 u/L
- BLOOD UREA NITROGEN [2]: 17.33 mg/dL
- CARBON DIOXIDE [2]: 31.33 mmol/L
- CHLORIDE [2]: 101.33 MEQ/L
- CHOLESTEROL [2]: 100.67 mg/dL
- CREATINE PHOSPHOKINASE [2]: 265.67 u/L
- CREATININE [2]: 0.14 mg/dL
- GLUCOSE [2]: 137.33 mg/dL
- LACTATE DEHYDROGENASE [2]: 201.67 u/L
- LIPASE [2]: 10 u/L
- PHOSPHORUS [2]: 11.8 mg/dL
- POTASSIUM [2]: 6.69 MEQ/L
- SODIUM [2]: 143.93 MEQ/L
- TOTAL BILIRUBIN [2]: 0.23 mg/dL
- TOTAL PROTEIN [2]: 6.3 G/DL
- URIC ACID [2]: 1.2 mg/dL
- ABSOLUTE BASOPHIL [3]: 0 CELLS/uL
- ABSOLUTE EOSINOPHIL [3]: 56.33 CELLS/uL
- ABSOLUTE LYMPHOCYTE [3]: 14978 CELLS/uL
- ABSOLUTE MONOCYTE [3]: 125.33 CELLS/uL
- ABSOLUTE SEGMENTED NEUTROPHIL [3]: 2373.67 CELLS/uL
- BASOPHIL [3]: 0%
- EOSINOPHIL [3]: 0.33%
- ERYTHROCYTE COUNT [3]: 5.38 x10E6/uL
- HEMATOCRIT [3]: 35.27%
- HEMOGLOBIN [3]: 13.67 G/DL
- LEUKOCYTE COUNT [3]: 17.53 x10E3/uL
- LYMPHOCYTE [3]: 85.67%
- MEAN CORPUSCULAR HEMOGLOBIN [3]: 25.4 pg
- MEAN CORPUSCULAR HEMOGLOBIN CONCENTRATION [3]: 38.77 G/DL
- MEAN CORPUSCULAR VOLUME [3]: 65.5 fL
- MONOCYTE [3]: 0.67%
- NEUTROPHIL [3]: 13.33%
- NUCLEATED RED BLOOD CELLS [3]: 0 /100WBC
- PLATELET COUNT [3]: 1317 x10E3/uL
- ALANINE AMINOTRANSFERASE [3]: 63.33 u/L
- ALBUMIN [3]: 4.37 G/DL
- ALKALINE PHOSPHATASE [3]: 310 u/L
- ASPARTATE AMINOTRANSFERASE [3]: 80.67 u/L
- BLOOD UREA NITROGEN [3]: 19.33 mg/dL
- CARBON DIOXIDE [3]: 28.67 mmol/L
- CHLORIDE [3]: 98.67 MEQ/L
- CHOLESTEROL [3]: 107 mg/dL
- CREATINE PHOSPHOKINASE [3]: 346.67 u/L
- CREATININE [3]: 0.21 mg/dL
- GLUCOSE [3]: 155.67 mg/dL
- LACTATE DEHYDROGENASE [3]: 272.33 u/L
- LIPASE [3]: 12.33 u/L
- PHOSPHORUS [3]: 12.8 mg/dL
- POTASSIUM [3]: 6.92 MEQ/L
- SODIUM [3]: 140.37 MEQ/L
- TOTAL BILIRUBIN [3]: 0.17 mg/dL
- TOTAL PROTEIN [3]: 6.17 G/DL
- URIC ACID [3]: 1.6 mg/dL
